Earlier results as cited in patent publication US12090144B2, “Photocurable hydrogel loaded with VH298-modified exosome and method of preparation and use thereof” (Chinese PLA General Hospital, priority 2022, dated 2024).

Settings: background statement

With Cc1ncsc1-c1ccc(CNC(=O)[C@@H]2C[C@@H](O)CN2C(=O)[C@@H](NC(=O)C2(C#N)CC2)C(C)(C)C)cc1 [VH298] as the compound, how does the water solubility read?
The water solubility was “poor water solubility”.
